Test [1] concerns pAkt protein levels. Kind of test: Western blotting of pAkt (Ser473) in SAN cells. It is filed as cell-based, human. The settings on record: 100 μM, 1 or 2 h. On the procedure: The molecular mechanisms that regulate the cytotoxic potential of 7 in melanoma cells were further investigated through the evaluation of the activation state of protein kinase B (pAkt), one of the key proteins involved in the control and regulation of cell survival. To this aim, the protein levels of pAkt have been analyzed after 2- and 4-h incubation of A2058 cells with 7. […] It is known that Akt regulates the process of cell survival by phosphorylating different substrates, directly or indirectly involved in the apoptotic program. One of these targets is p53, a protein with a tumor-suppressor activity that regulates the cell cycle, as well as the expression of several genes involved in the apoptosis. […]
A2058 cells were seeded into 6-well-plates (3 × 10^5 cells/plate) for 24 h at 37°C and then treated at different times with 100 μM compound 7 or 0.5% DMSO. […] The protein concentration was determined by the method of Bradford, using bovine serum albumin (BSA) as standard. […] Membranes were then analysed by an enhanced chemiluminescence reaction, using Super Signal West Pico kit (Pierce) according to manufacturer's instruction; signals were visualized by autoradiography. […]
0.5% DMSO or 100 μM compound 7 for 1 or 2 h, were analyzed by Western blotting using an antibody raised against pAkt (Ser473). […]
A general note: Immunoblotting shows a protein as a band on a membrane.

The target in test [2] is T1, CDC25B (Homo sapiens, UniProt P30305).
T1 construct: Recombinant forms of the catalytic domains of CDC25A, -B and -C were obtained through the vectors pET28a-CDC25A-cd, pET28a-CDC25B-cd and pET28a-CDC25C-cd; made in house
T1 sequence (P30305 431-538 limits assumed): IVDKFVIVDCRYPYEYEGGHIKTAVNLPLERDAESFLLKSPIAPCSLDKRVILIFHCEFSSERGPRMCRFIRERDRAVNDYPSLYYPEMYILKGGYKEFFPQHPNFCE
Kind of test: Residual phosphatase activity of recombinant CDC25B, fluorimetric OMFP assay. It is filed as biochemical. Particulars: 10 nM CDC25B, 25 μM OMFP, read-out: CDC25B residual activity (%) in the presence of [inhibitor]. On the procedure: Among the twenty-five structures identified from the multiple ligand-based chemoinformatic approach, eight compounds (2, 10, 12–14, and 16–18) were excluded from the analysis, because endowed with a strong fluorescent signal, which interfered with the emission wavelength of the synthetic substrate 3-O-methylfluorescein phosphate (OMFP) used in the fluorimetric assay. The inhibition of the phosphatase activity of CDC25B by the remaining seventeen analogs was evaluated in the presence of two different concentrations of these compounds (Table 2). […] For this reason, only one of these latter compounds, i.e. 3, was included in the following analysis.
The enzymatic activity of the catalytic domains of CDC25A, -B and -C were determined through a fluorimetric method, which monitored the dephosphorylation of the synthetic substrate OMFP, essentially as previously described. In steady-state enzyme kinetic studies, the residual phosphatase activity of purified recombinant CDC25B was measured at 30°C in the presence of different concentrations of the various inhibitors, using a computer-assisted Cary Eclipse spectrofluorimeter (Varian) equipped with an electronic temperature controller. Excitation and emission wavelengths were set at 485 and 530 nm, respectively; both excitation and emission slits were set at 10 nm. The reaction mixture contained 10 nM CDC25B and different concentrations of the various inhibitors in 500 μL final volume of 20 mM Tris-HCl, pH 7.8, 1 mM DTT. DMSO was used as vehicle control. The reaction started by the addition of 25 μM OMFP, and the formation of the fluorescent product o-methylfluorescein was monitored continuously. The rate of OMFP hydrolysis was expressed as arbitrary units per min (a.u./min). The comparison of the rates determined in the absence and in the presence of the various inhibitors allowed the calculation of the residual phosphatase activity, expressed as a percentage.

In test [3] the test system is A2058 cells. Kind of test: Intracellular ROS level (DCFH-DA), A2058 cells. Format: cell-based, human. On the procedure: The high redox reactivity of quinonoid molecules, like compound 7, could greatly perturb the intracellular redox state. […] The oxidant effect of 7 was also evaluated after cell pre-treatment with two antioxidant molecules, such as N-acetyl-cysteine (NAC) and the specific inhibitor of NADPH oxidase, apocynin. To this aim, A2058 and SAN cells were pre-incubated for 1 h with 10 mM NAC or 45 min with 0.5 mM apocynin and then treated for 4 h with 100 μM compound 7. […] The cytotoxic activity of 7 could be mediated by the observed increase of ROS level.
The intracellular ROS level was monitored using the oxidation-sensitive fluorescence probe DCFH-DA. Cells were seeded into 6-well-plates (3 × 10^5 cells/plate) for 24 h at 37°C and then treated at various times with 100 μM compound 7 or 0.5% DMSO. DCFH-DA was added in the dark at 10 μM final concentration 30-min before the end of each incubation; then, cells were collected, washed in PBS, and finally resuspended in 500 μL PBS for fluorimetric analysis. Measurements were realized in a Cary Eclipse fluorescence spectrophotometer (Varian); excitation and emission wavelengths were set at 485 nm and 530 nm, respectively; both excitation and emission slits were set at 10 nm. The effect of 7 on ROS production was also estimated after pretreatment of cells with 10 mM NAC for 1 h.

The test system of test [4] is CDC25C protein levels. Kind of test: Western blotting of CDC25C protein levels in A2058 cells. The settings on record: A2058, 100 μM, from 4 h up to 16 h. Format: cell-based, human. How it is done:
To better investigate the effect of this inhibitor at the molecular level, we evaluated if the treatment of A2058 cells with 7 affected also the protein levels of the three CDC25 forms. […] On the other hand, the protein levels of CDC25B were unaffected by treatment of A2058 cells with 7 up to 16 h.
A2058 cells were seeded into 6-well-plates (3 × 10^5 cells/plate) for 24 h at 37°C and then treated at different times with 100 μM compound 7 or 0.5% DMSO. After treatment, cells were harvested, washed with PBS and then lysed in ice-cold modified radio immunoprecipitation assay (RIPA) buffer (50 mM Tris-HCl, pH 7.4, 150 mM NaCl, 1% Nonidet P-40, 0.25% sodium deoxycholate, 1 mM Na3VO4 and 1 mM NaF), supplemented with protease inhibitors and incubated for 30 min on ice. The supernatant obtained after centrifugation at 12,000 rpm for 30 min at 4°C constituted the total protein extract. The protein concentration was determined by the method of Bradford, using bovine serum albumin (BSA) as standard. Equal amounts of total protein extracts were used for Western blot analysis. […] Membranes were then analysed by an enhanced chemiluminescence reaction, using Super Signal West Pico kit (Pierce) according to manufacturer's instruction; signals were visualized by autoradiography.

Consider `O=C(O)C1CCCCC1c1c2ccc(=O)cc-2oc2cc(O)ccc12` (stereo not shown) [Compound 7, 2-(6-hydroxy-3-oxo-3H-xanthen-9-yl)cyclohexanecarboxylic acid], for which, in test [1], the “Akt activation (pAkt)” value was “early reduction of Akt activation”. Besides, the remaining activity at 0.2 µM in test [2] (0.2 μM inhibitor) came out at 44%. Further, the remaining activity at 1 µM in test [2] (1 μM inhibitor) was found to be 1%. Moreover, in test [3] (A2058, 100 μM, significant after 4 h), the “intracellular ROS level” value is on record as “time-dependent increase of the ROS level”. Further, the “increase of ROS level after apocynin pre-treatment” value in test [3] (A2058, 0.5 mM apocynin 45 min, then 100 μM 7 for 4 h) is “did not prevent the increase of ROS level”. In addition, the “increase of ROS level after NAC pre-treatment” value in test [3] (A2058, 10 mM NAC 1 h, then 100 μM 7 for 4 h) is recorded as “prevented by the NAC treatment”. Moreover, the CDC25C protein levels result in test [4] is “progressive and significant reduction of CDC25C protein levels”.
